# Assay results published in patent publication US9364551B2, “Light-enabled drug delivery” (Virginia Commonwealth University, priority 2011, dated 2016).
# Where a name gives a salt, the structure may show the parent alone. Read-outs that look alike come from different tables or passages of the source. Where no end group is shown, it is not given here. [ ]: non-standard residue; d: D form. bis‑iodoacetamido azobenzene = bis-iodoacetamido azobenzene crosslinker; Aib = CC(C)(N)C(=O)O
# What was measured:
# JH-EsoAd1 cells [1] = test: Concentration dependent cell viability (MTT assay); type: cell-based
# Method: (§1) The Esophageal cancer cell line (JH-EsoAd1) was cultured at 37° C. and in a humidified atmosphere of 5% CO2 in RPMI 1640 medium supplemented with 10% fetal bovine serum (FBS). For 96 well plate experiments, the JH-EsoAd1 cells were seeded at 4450 cells/well in 100 uL of media in 96 well plates; experiments were carried out one day after seeding. MTT assays were analyzed using a Bio-Tex μQuant plate reader at 562 nm. FACS was performed BD FACS Aria II using BD FACS Diva software at the VCU Flow Cytometry Core Facility. A minimum of 20,000 cells within the gated region were analyzed. Confocal microscopy images were acquired at room temperature with a Leica confocal laser scanning microscope.
# (§2) JH-EsoAd1 cells were treated with media alone, media supplemented with EDANS (20 μM), or media supplemented with Dox-EDANS (9) (20 μM) in a 96 well clear-bottom, opaque plate. Cells were exposed to light (9 mW/cm^2) for various times (0-40 min) regulated by an aluminum foil mask. During the experiment the plate was kept in ice to reduce the heating by the UV lamp. After the lamp was turned off, the plate was covered with foil and placed at room temperature for an additional 80 min. The media was removed, and the cells were thoroughly washed with media (3×); then 200 μL of fresh media was added to each well. The plates were incubated for 72 hours at 37° C., following which the media was removed and 100 µL of MTT (2 mg/ml) in phosphate buffered saline (PBS) was added to each well. After 3 hours, the MTT solution was removed and replaced with 100 μL of DMSO. The absorbance at 562 nm was analyzed via a plate reader.
# JH-EsoAd1 cells were treated with media supplemented with various concentrations of doxorubicin (0-6.4 μM) or Dox-EDANS (9) (0-16 μM) in a 96 well clear-bottom, opaque plate. Control wells were covered with aluminum foil while the remaining wells were exposed UV light (9 mW/cm^2) for 20 min. The plate was kept in ice during light exposure in order to minimize the heating. After irradiation, the plate was kept at it in the dark for another 100 minutes. […]
# JH-EsoAd1 cells [2] = test: Illumination time-dependent toxicity (MTT assay); type: cell-based
# Method: as §1
# as §2, with “The plates were incubated for 72 hours at 37° C., following which the media was removed and 100 µL of MTT (2 mg/ml) in phosphate buffered saline (PBS) was added to each well. After 3 hours, the MTT solution was removed and replaced with 100 μL of DMSO.” left out
# JH-EsoAd1 cells [3] = test: Confocal microscopic analysis of permeability; type: cell-based; conditions: 10 μM, light-treated cells vs dark
# Method: as §1
# JH-EsoAd1 cells were seeded at 30,000 cells/well on 4 well glass chamber slides, and were treated as above (Flow cytometry analysis). The cells were treated with media alone or media supplemented with 10 μM of EDANS-Dox (6). The plate was placed on ice, and the light treated cells were exposed to UV light (9 mW/cm^2) for 20 minutes. Following the light exposure the plates were kept at room temperature for 100 minutes. The cells were washed extensively with PBS and fixed for 15 min at 37° C. with 3% paraformaldehyde in PBS. Slides were rinsed, dried and mounted under coverslips using Vectashield mounting media (Vector Laboratories, Inc.).
# [4] = Photolytic release of doxorubicin from drug conjugate (RP-HPLC); type: physicochemical; conditions: PBS buffer, UV light 365 nm (9.0 mW/cm^2), 0.5-30 min
# Method: The photolytic release of doxorubicin from the drug conjugate was analyzed using HPLC. The drug conjugate was dissolved in PBS buffer and was exposed to UV light at 365 nm (9.0 mW/cm^2). Aliquots of the reaction mixture were collected at various times and were analyzed on RP-HPLC.
# A solution (0.065 mM in 1 mL) of compound 6 in PBS was placed in a 60×15 mm well plastic dish placed on ice. The solution was irradiated and 70 μL was removed at various time points (0.5, 1, 2, 4, 8, 15, 20, and 30 minutes). Each assay was analyzed on RP-HPLC using isocratic elution of 20% organic eluent (0.1% TFA in acetonitrile) for 5 minutes and then using gradient elution from 20% to 70% for 30 minutes and was monitored at λabs=480 nm. (See FIG. 14).
# [5] = HPLC monitoring of azobenzene cis to trans thermal relaxation after illumination; type: physicochemical; conditions: fit to exponential decay
# Source text: We also monitored the switching of the azobenzene by HPLC, since we were able to separate both the cis and trans peptide isomers (FIG. 19B). After illumination the cis isomer reverted to the trans isomer over time. […] The half-life is in line with measurements of similar peptides, but the % cis is lower than the typical 80-95%. Use of a filter to eliminate the longer wavelength light (our light source has a spike of intensity at 405 nm which can promote cis to trans reversion) would enhance photoswitching upon irradiation.
# [6] = CD spectra of photoswitching; type: physicochemical
molecule,measurement,setting,value
"COc1cccc2c1C(=O)c1c(O)c3c(c(O)c1C2=O)C[C@@](O)(C(=O)CO)C[C@@H]3O[C@H]1C[C@H](N)[C@H](O)[C@H](C)O1 [Dox, Doxorubicin Hydrochloride, reference compound]",IC50,"JH-EsoAd1 cells [1]; Dox alone, read-out: IC50 of Dox alone with the JH-EsoAd1 cells",1 ± 0.4 µM
"COc1cc(C(C)OC(=O)NC2C[C@H](OC3C[C@](O)(C(=O)CO)Cc4c(O)c5c(c(O)c43)C(=O)c3c(OC)cccc3C5=O)C[C@@H](C)[C@H]2O)c([N+](=O)[O-])cc1OCCCC(=O)NCc1cn(-c2ccc(C(=O)NCCNc3cccc4c(S(=O)(=O)O)cccc34)cc2)nn1 (stereo partly shown) [EDANS-Dox, Photocaged-Cell Impermeable Dox. Conjugate]",IC50,"JH-EsoAd1 cells [1]; 20 min, illumination 365 nm, 9.0 mW/cm^2, 20 min, read-out: IC50, cytotoxicity upon illumination",1.6 ± 1 µM
same,toxicity to the cells in the dark,"JH-EsoAd1 cells [1]; in the dark, at the highest value tested (16 µM)",not toxic
same,Survival of cells in the dark,JH-EsoAd1 cells [2]; in the dark,equivalent to controls with no drug added
same,Cell survival with increased illumination,"JH-EsoAd1 cells [2]; light 9 mW/cm^2, 0-40 min",decreased survival
same,Dox fluorescence in the nucleus (confocal),JH-EsoAd1 cells [3],only light-treated cells show significant Dox fluorescence in the nucleus
same,photolytic release of doxorubicin,[4],time-depended drug release in the presence of light
"*CRACARVXAACRAAARQ (RACARV[Aib]AACRAAARQ; linker (positions not given here) via bis‑iodoacetamido azobenzene; not fully specified (N-terminus, bridges); also: bis-iodoacetamido azobenzene crosslink, Cys pair not given here) [Peptide 1, arginine-rich photoswitchable peptide, cysteines crosslinked with bis-iodoacetamido azobenzene; X=2-aminoisobutyric acid]",percentage of cis isomer upon illumination,[5],55%
same,conformation upon irradiation (CD),"[6]; 370 nm light, 25° C., illumination for 5 min",more α-helical
same,conformation after removal of light (CD),[6]; after 30 minutes in the dark,reverted mostly back to the more random coiled state
